Experimental data from the NIST ThermoML archive (doi:10.1021/je034177v).
± gives the expanded uncertainty stated by the source.

Experiment: xn = mol fraction of the nth substance listed
Settings: 101 kPa, Liquid; for mass density: Vibrating tube method; for speed of sound: Pulse-echo method

ClCCCCCCCl [1,6-dichlorohexane] + CCCCCCCCCCCC
Settings | mass density [kg/m3] | speed of sound [m/s]
303.15 K, x1 = 0.0498 | 751.5 ± 0.34 | –
303.15 K, x1 = 0.1003 | 761.96 ± 0.33 | –
303.15 K, x1 = 0.1497 | 772.7 ± 0.33 | –
303.15 K, x1 = 0.2527 | 796.64 ± 0.32 | –
303.15 K, x1 = 0.4017 | 835.16 ± 0.32 | –
303.15 K, x1 = 0.502 | 864.08 ± 0.31 | –
303.15 K, x1 = 0.6 | 895.24 ± 0.31 | –
303.15 K, x1 = 0.7011 | 930.52 ± 0.3 | –
303.15 K, x1 = 0.7986 | 968.02 ± 0.3 | –
303.15 K, x1 = 0.8998 | 1011.2 ± 0.29 | –
303.15 K, x1 = 0.9493 | 1034.18 ± 0.29 | –
303.15 K, x1 = 0.9691 | 1043.71 ± 0.29 | –
303.15 K, x1 = 1 | 1059 ± 0.29 | –
308.15 K, x1 = 0.0498 | 747.81 ± 0.33 | 1238.5 ± 1
308.15 K, x1 = 0.1003 | 758.26 ± 0.33 | 1237.4 ± 1
308.15 K, x1 = 0.1497 | 768.93 ± 0.33 | 1236.6 ± 0.99
308.15 K, x1 = 0.2527 | 792.76 ± 0.32 | 1236 ± 0.96
308.15 K, x1 = 0.4017 | 831.14 ± 0.32 | 1237.6 ± 0.93
308.15 K, x1 = 0.502 | 859.96 ± 0.31 | 1240.5 ± 0.91
308.15 K, x1 = 0.6 | 891.01 ± 0.3 | 1245 ± 0.89
308.15 K, x1 = 0.7011 | 926.17 ± 0.3 | 1251.3 ± 0.87
308.15 K, x1 = 0.7986 | 963.55 ± 0.3 | 1259.3 ± 0.85
308.15 K, x1 = 0.8998 | 1006.61 ± 0.29 | 1269.8 ± 0.84
308.15 K, x1 = 0.9493 | 1029.52 ± 0.29 | 1276 ± 0.83
308.15 K, x1 = 0.9691 | 1039 ± 0.29 | 1278.5 ± 0.83
308.15 K, x1 = 1 | 1054.25 ± 0.29 | 1282.7 ± 0.82
313.15 K, x1 = 0.0498 | 744.13 ± 0.33 | 1219.6 ± 1
313.15 K, x1 = 0.1003 | 754.53 ± 0.33 | 1218.5 ± 0.99
313.15 K, x1 = 0.1497 | 765.15 ± 0.33 | 1217.9 ± 0.98
313.15 K, x1 = 0.2527 | 788.89 ± 0.32 | 1217.5 ± 0.96
313.15 K, x1 = 0.4017 | 827.13 ± 0.31 | 1219.3 ± 0.93
313.15 K, x1 = 0.502 | 855.84 ± 0.31 | 1222.4 ± 0.9
313.15 K, x1 = 0.6 | 886.78 ± 0.3 | 1227 ± 0.88
313.15 K, x1 = 0.7011 | 921.82 ± 0.3 | 1233.6 ± 0.87
313.15 K, x1 = 0.7986 | 959.07 ± 0.29 | 1241.8 ± 0.85
313.15 K, x1 = 0.8998 | 1002 ± 0.29 | 1252.5 ± 0.83
313.15 K, x1 = 0.9493 | 1024.85 ± 0.29 | 1258.8 ± 0.82
313.15 K, x1 = 0.9691 | 1034.3 ± 0.29 | 1261.3 ± 0.82
313.15 K, x1 = 1 | 1049.5 ± 0.29 | 1265.7 ± 0.82
318.15 K, x1 = 0.0498 | 740.46 ± 0.33 | 1200.9 ± 1
318.15 K, x1 = 0.1003 | 750.82 ± 0.33 | 1199.9 ± 0.99
318.15 K, x1 = 0.1497 | 761.37 ± 0.33 | 1199.3 ± 0.98
318.15 K, x1 = 0.2527 | 785.03 ± 0.32 | 1199 ± 0.95
318.15 K, x1 = 0.4017 | 823.12 ± 0.31 | 1201.2 ± 0.92
318.15 K, x1 = 0.502 | 851.72 ± 0.31 | 1204.4 ± 0.9
318.15 K, x1 = 0.6 | 882.55 ± 0.3 | 1209.2 ± 0.88
318.15 K, x1 = 0.7011 | 917.48 ± 0.3 | 1216 ± 0.86
318.15 K, x1 = 0.7986 | 954.61 ± 0.29 | 1224.3 ± 0.84
318.15 K, x1 = 0.8998 | 997.44 ± 0.29 | 1235.3 ± 0.83
318.15 K, x1 = 0.9493 | 1020.2 ± 0.29 | 1241.7 ± 0.82
318.15 K, x1 = 0.9691 | 1029.61 ± 0.29 | 1244.3 ± 0.82
318.15 K, x1 = 1 | 1044.78 ± 0.28 | 1248.7 ± 0.81
323.15 K, x1 = 0.0498 | 736.76 ± 0.33 | 1182.4 ± 1
323.15 K, x1 = 0.1003 | 747.09 ± 0.33 | 1181.4 ± 0.98
323.15 K, x1 = 0.1497 | 757.6 ± 0.33 | 1180.9 ± 0.97
323.15 K, x1 = 0.2527 | 781.15 ± 0.32 | 1180.8 ± 0.95
323.15 K, x1 = 0.4017 | 819.09 ± 0.31 | 1183.1 ± 0.92
323.15 K, x1 = 0.502 | 847.59 ± 0.31 | 1186.5 ± 0.89
323.15 K, x1 = 0.6 | 878.32 ± 0.3 | 1191.6 ± 0.88
323.15 K, x1 = 0.7011 | 913.12 ± 0.3 | 1198.5 ± 0.86
323.15 K, x1 = 0.7986 | 950.13 ± 0.29 | 1207 ± 0.84
323.15 K, x1 = 0.8998 | 992.83 ± 0.29 | 1218.2 ± 0.82
323.15 K, x1 = 0.9493 | 1015.52 ± 0.29 | 1224.7 ± 0.81
323.15 K, x1 = 0.9691 | 1024.9 ± 0.29 | 1227.4 ± 0.81
323.15 K, x1 = 1 | 1040.03 ± 0.28 | 1231.8 ± 0.81
328.15 K, x1 = 0.0498 | 733.07 ± 0.33 | 1163.9 ± 0.99
328.15 K, x1 = 0.1003 | 743.36 ± 0.33 | 1163 ± 0.98
328.15 K, x1 = 0.1497 | 753.83 ± 0.33 | 1162.6 ± 0.97
328.15 K, x1 = 0.2527 | 777.28 ± 0.32 | 1162.6 ± 0.94
328.15 K, x1 = 0.4017 | 815.09 ± 0.31 | 1165.2 ± 0.91
328.15 K, x1 = 0.502 | 843.49 ± 0.31 | 1168.8 ± 0.89
328.15 K, x1 = 0.6 | 874.11 ± 0.3 | 1174 ± 0.87
328.15 K, x1 = 0.7011 | 908.81 ± 0.3 | 1181.1 ± 0.85
328.15 K, x1 = 0.7986 | 945.71 ± 0.29 | 1189.9 ± 0.83
328.15 K, x1 = 0.8998 | 988.3 ± 0.29 | 1201.2 ± 0.82
328.15 K, x1 = 0.9493 | 1010.92 ± 0.29 | 1207.8 ± 0.81
328.15 K, x1 = 0.9691 | 1020.27 ± 0.29 | 1210.5 ± 0.81
328.15 K, x1 = 1 | 1035.37 ± 0.28 | 1215.1 ± 0.8
